Laboratory results reported in PMC7002704, “Inhibitory effect of Citrus flavonoids on the in vitro transport activity of human urate transporter 1 (URAT1/SLC22A12), a renal re-absorber of urate” (NPJ Science of Food, 2020).
pIC50: −log10 of the molar value. Where two headings read alike, the source gives them in different places.

What was measured:
[1] = molecular target: T1, urate transporter 1 (URAT1/SLC22A12) (Homo sapiens, UniProt Q96S37)
T1 sequence (Q96S37 1-553): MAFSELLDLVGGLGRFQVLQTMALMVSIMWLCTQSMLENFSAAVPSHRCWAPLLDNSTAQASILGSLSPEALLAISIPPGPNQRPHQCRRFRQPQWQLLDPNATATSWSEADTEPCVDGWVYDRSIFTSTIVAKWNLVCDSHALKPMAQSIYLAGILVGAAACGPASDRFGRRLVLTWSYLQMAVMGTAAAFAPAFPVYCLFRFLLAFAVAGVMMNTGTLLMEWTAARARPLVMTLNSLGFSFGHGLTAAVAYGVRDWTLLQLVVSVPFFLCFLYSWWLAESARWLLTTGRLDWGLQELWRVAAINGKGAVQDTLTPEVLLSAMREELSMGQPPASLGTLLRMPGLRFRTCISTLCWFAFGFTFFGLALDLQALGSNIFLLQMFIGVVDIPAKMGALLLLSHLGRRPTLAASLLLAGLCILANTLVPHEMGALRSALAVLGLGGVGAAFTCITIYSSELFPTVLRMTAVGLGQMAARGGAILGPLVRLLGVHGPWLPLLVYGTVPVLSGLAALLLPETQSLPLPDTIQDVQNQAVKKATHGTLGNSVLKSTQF

[2] = molecular target: T1, urate transporter 1 (URAT1/SLC22A12); experiment: [[…]-14C]-urate uptake inhibition in URAT1-expressing […] cells; format: cell-based; parameters: EGFP-tagged URAT1 wild type (pEGFP-C1)

CCc1oc2ccccc2c1C(=O)c1cc(Br)c(O)c(Br)c1 [benzbromarone]
% inhibition at 10 μM [1]: 96

COc1ccc([C@@H]2CC(=O)c3c(O)cc(O)cc3O2)cc1O [hesperetin]
pIC50 [2]: 4.59

O=C1C[C@@H](c2ccc(O)cc2)Oc2cc(O)cc(O)c21 [naringenin]
pIC50 [2]: 4.79

COc1ccc(-c2cc(=O)c3c(OC)c(OC)c(OC)c(OC)c3o2)cc1OC [nobiletin]
pIC50 ([2]; read-out: IC50): 4.75
